Measurements as given in paper PMC5563080, “The High-Affinity Interaction between ORC and DNA that Is Required for Replication Licensing Is Inhibited by 2-Arylquinolin-4-Amines” (Cell Chemical Biology, 2017).

Test system: U2OS
Assay: cells
Set-up: Inhibition of MCM4 chromatin loading (replication licensing) in synchronised U2OS cells, immunofluorescence high-content imaging
Details: Homo sapiens, 8 h, MCM4 DNA binding
Experimental: We used these changes to design a high-throughput assay for licensing inhibitors (Figure 1B). Human U2OS cells were released into S phase from a double-thymidine block (Figures S1A–S1C) and then treated with RO3306, a CDK1 inhibitor, to reversibly block them in G2 (Figure S1D). RO3306 was removed and cells were seeded into 384-well plates containing test compounds (Figure S1E). Eight hours later, when cells should have passed through mitosis and loaded MCM2–7, cells were fixed and immunostained for DNA-bound MCM4 and also treated with DAPI to stain total DNA (Figure S1F). Microscopic images of each treatment (Figures 1C and 1D) were taken on an InCell 1000 system, which returned values for MCM4 and DNA content for each of the cells identified. To avoid any confounding effects of RO3306 treatment, we then retested these 280 compounds using a low-throughput screen whereby cells were synchronized by mitotic shake-off prior to exposure with test compounds. This low-throughput assay also has the advantage of removing cells that suffer non-specific inhibition by test compounds, as only metabolically active cells can re-adhere to the plates. Sixteen compounds produced a reproducible reduction (>60%) of DNA-bound MCM4 in this assay. These 16 compounds fell into eight discrete chemical families, which we named RL1 to RL8. After resynthesis and re-assay, we decided to take 12 of these 16 compounds forward for further study: RL1a, RL1b, RL2, RL3a, RL3b, RL4, RL5a–RL5e, and RL8. […] Microscopic images (6 fields / well) of each treatment were taken on an InCell 1000 system (GE healthcare) using a 20x objective. ActivityBase from ID Business Solutions was used for the data processing and analysis, returning values for Mcm4 and DNA content for each of the cells identified. Figure S6 details the plate maps used for the assay. A Quality Control plate was included for every three assay plates (Figure S6), where columns 1-12 were low control wells (+ R03306 + 1% DMSO) and columns 13-24 were high control well (+Media + 1% DMSO). The performance of the assay on each screening plate was evaluated using internal controls. The criteria for data acceptance of an assay plate were signal to background (mean Hi Control) / (mean Lo Control) >1.5; Z-prime (1 - (3 x Lo Control Standard Deviation + 3 x SD Hi Control Standard Deviation) / (mean Hi Control - mean Lo Control)) >0.3. The statistics from all assay plates and Quality Control plates were analysed. The screen performance indicators were: signal to background 2.4±0.53 and Z-prime 0.47±0.10.

Structure (SMILES) | IC50
CCN(CC)CCNc1nc(-c2cccc(Cl)c2)nc2ccccc12 [RL5d] | 32 µM
Cc1c(C)n(-c2nc3ccccc3s2)c2ncnc(NCCN(C)C)c12 [RL5e] | 7 µM
CN(C)CCNc1cc(-c2ccco2)nc2ccccc12 [RL5a] | 8 µM
CN(C)CCNc1cc(-c2cccs2)nc2ccccc12 [RL5b] | 22 µM
CN(C)CCNc1nc(-c2ccncc2)nc2ccccc12 [RL5c] | 59 µM
